Legend:
[1] = General cytotoxicity on HepG2 cells; format: cell-based; conditions: human, 72 h incubation
Method: The CC50 values were determined in the test for General cytotoxicity On HepG2 cells (hepatocellular carcinoma, ATCC® HB-8065™). Cells per well were seeded in 96-well plates (Corning, #3599) at a concentration ≈20×10^3 cells in 100 μL of medium and incubated for 72 h with added compounds within the range of concentrations of 200 to 0.78 μM. Cell viability was assessed using the above method.

[2] = Enzyme stability in human liver S9 fractions (Phase II); format: in vitro ADME; conditions: pH 7.4; 0.5 mg/mL pooled human liver S9 fractions, 10 μM compound, 37° C.; read-out: Enzyme stability Liver S9 fraction CLint
Method: Measuring of enzyme stability of the present compounds enabled estimation of their stability towards the action of Phase II biotransformation enzymes.
Enzyme degradation rate was measured by incubating the reaction mixture in a dry block thermostat at 37° C., said reaction mixture comprising 0.5 mg/mL of pooled human liver S9 fractions (XenoTech, USA, cat #H0610), 10 μM compound, 2 mM β-nicotinamide adenine dinucleotide (Carbosynth, UK, cat #NN10871) and 4 mM magnesium chloride in 0, 1 M sodium-phosphate buffer, pH=7, 4. The reaction was quenched with acetonitrile (100 μL of acetonitrile/100 μL of the reaction mixture). After quenching, the samples were centrifuged at 10000 rpm for 10 minutes. Supernatant fluid was tested by chromatographic technique using Agilent1200 (Agilent, USA). Chromatographic analysis was performed in a gradient elution regime with a flow rate of 1 mL/min A graph of the logarithm of substance's peak area as a function of time was made. The dependent factor of the line corresponded to the elimination rate constant K based on which the drug's half-life T½ and degradation rate CLint were calculated:
Based on the data obtained, candidates' enzyme stability in human liver S9 fractions was determined.

MV4-11 cells = experiment: Antiproliferative activity, MV4-11 cells (AlamarBlue); format: cell-based; conditions: Homo sapiens, 120 h incubation, read-out: MV-4-11 IC50
Method: (§1) Antiproliferative activity of CDK8 inhibitors according to the present invention was measured in a cell-based test on continuous cell cultures MV4-11 (biphenotypic myelomonocytic leukemia, ATCC® CRL-9591™), KG-1 (acute myeloid leukemia, ATCC® CCL-246™) using a vital stain AlamarBlue (ThermoFisher, #DAL1100). The cells were grown in RPMI-1640 (PanEco, #C330p) medium with addition of 10% FBS (Gibco, #16140-071); washed and resuspended in culture medium with 10% FBS (Gibco, #16140-071) in 96-well culture plates (Corning, #3599) with ≈10×10^3 cells in […] of medium per well. The compounds in question were dissolved in DMSO and diluted with a medium with 10% FBS (Gibco, #16140-071) to a final concentration ranging from 0 to 100 μM. […] of diluted compounds were then added to each well (final DMSO concentration was less than 1%) and incubated under 5% CO2 atmosphere at 37° C. for 120 h. After incubating, 15 μL/well of AlamarBlue (ThermoFisher, #DAL1100) reagent was added, contents of plates were mixed in an orbital shaker (Biosan, Latvia) and further incubated for 3-5 h at 37° C. under 5% CO2 atmosphere. Number of living cells was estimated using a microplate spectrophotometer (Tecan Infinite M200Pro, Switzerland) measuring fluorescent signal at the excitation wavelength (λEx) of 540 nm and emission wavelength (λEm) of 590 nm.
(§2) IC50 values were calculated using Magellan 7.2 software (Tecan, Switzerland) approximating experimental points by four-parameter logistic model with the optimization by Levenberg-Marquardt (Table 6).

CDK8/Cyclin C = CDK8/Cyclin C (Homo sapiens (Human), UniProt P49336); experiment: LanthaScreen binding to recombinant CDK8/Cyclin C; conditions: TR-FRET, Tracer 236 10 nM, CDK8/Cyclin C 5 nM
Sequence of CDK8/Cyclin C (P49336 whole entry): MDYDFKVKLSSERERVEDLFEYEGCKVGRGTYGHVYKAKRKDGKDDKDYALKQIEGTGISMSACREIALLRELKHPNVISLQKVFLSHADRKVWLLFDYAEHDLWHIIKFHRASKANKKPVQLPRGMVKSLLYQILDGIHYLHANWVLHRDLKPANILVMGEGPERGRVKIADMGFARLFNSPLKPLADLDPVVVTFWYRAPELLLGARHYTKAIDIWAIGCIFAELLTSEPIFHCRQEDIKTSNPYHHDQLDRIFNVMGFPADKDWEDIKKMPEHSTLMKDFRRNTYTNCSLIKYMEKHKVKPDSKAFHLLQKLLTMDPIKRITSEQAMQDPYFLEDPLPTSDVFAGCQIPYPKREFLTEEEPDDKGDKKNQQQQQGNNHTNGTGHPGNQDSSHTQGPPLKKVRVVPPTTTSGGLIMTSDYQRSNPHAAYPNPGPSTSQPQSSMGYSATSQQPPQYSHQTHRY
Sequence of CDK8/Cyclin C (P24863 whole entry partner): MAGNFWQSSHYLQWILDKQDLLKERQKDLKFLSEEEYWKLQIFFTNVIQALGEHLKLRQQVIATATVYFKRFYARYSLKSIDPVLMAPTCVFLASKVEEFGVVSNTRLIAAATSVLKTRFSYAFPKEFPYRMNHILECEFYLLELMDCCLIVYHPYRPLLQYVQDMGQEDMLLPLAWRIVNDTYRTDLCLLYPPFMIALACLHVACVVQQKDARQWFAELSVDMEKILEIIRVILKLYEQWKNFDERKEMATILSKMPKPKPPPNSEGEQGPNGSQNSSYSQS
Method: Capability of compounds of the present invention to bind to CDK8 protein was detected using LanthaScreen (ThermoFisher) assay. We detected FRET signal proportional to the amount of CDK8-bound fluorescently-labeled ligand (Tracer 236) that competes with inhibitor for ATP binding site. We carried out the measurements in a 15 μl reaction volume using a 384-well plate (Corning, #CLS4513). Enzyme CDK8/Cyclin C (ThermoFisher, #PR7261B) was mixed with antibodies Anti-His-tag-Biotin (ThermoFisher, #PV6090), Streptavidin-Eu (ThermoFisher, #PV6025), the resulting mixture was added to plate wells (5 MKπ/well). Final concentrations of substances were as follows: CDK8/Cyclin C—5 nM, Streptavidin-Eu—3 nM, Anti-His-tag-Biotin—3 nM. Staurosporine (S4400, Sigma) was used as a reference inhibitor, and 0.1% solution of dimethyl sulphoxide (DMSO) in reaction buffer was used as a blank, the reaction buffer comprised 250 mM HEPES (pH 7.5), 50 mM MgCl2, 5 mM EGTA, and 0.05% Brij-35.
The inhibitors and controls in question were added to corresponding wells (5 μl/well). The plate was incubated at room temperature for 20 minutes. After incubating, 5 μl/well of tracer solution Alexa Fluor-647 (Kinase Tracer 236, ThermoFisher, #PV5592)) was added to the wells. Final concentration of tracer was 10 nM. Reaction buffer, instead of tracer solution, was used as a negative control. The plate was incubated for 40 minutes at 25° C., TR-FRET signal was then measured according to the manufacturer's guidelines on SPARK20 plate reader (Tecan, Switzerland), and the value was converted to the amount of kinase-bound tracer. IC50 values were calculated using SparkControl Magellan 1.2 software (Tecan, Switzerland) approximating experimental points by four-parameter logistic model with the optimization by Levenberg-Marquardt (Table 5).

[3] = Enzyme stability in human liver microsomes (Phase I); format: in vitro ADME; conditions: pH 7.4; 0.5 mg/mL pooled human liver microsomes, 10 μM compound, 37° C.
Method: Measuring of enzyme stability of the present compounds enabled estimation of their stability towards the action of Phase I biotransformation enzymes.
The rate of enzymatic decomposition of a compound was detected by incubating the reaction mixture in a dry block heater at 37° C.; the reaction mixture contained 0.5 mg/mL of pooled human liver microsomes (XenoTech, USA, cat #H6010), 10 μM of a compound, 2 mM β-nicotinamide adenine dinucleotide (Carbosynth, UK, cat #NN10871) and 4 mM of magnesium chloride in 0.1M sodium phosphate buffer (pH=7.4). The reaction was quenched with acetonitrile (100 μL of acetonitrile/100 μL of the reaction mixture). After quenching, the samples were centrifuged at 10000 rpm for 10 minutes. Supernatant fluid was tested by chromatographic technique using Agilent1200 (Agilent, USA). Chromatographic analysis was performed in a gradient elution regime with a flow rate of 1 mL/min. A graph of the logarithm of substance's peak area as a function of time was made. The dependent factor of the line corresponded to the elimination rate constant K based on which the drug's half-lif½e T and degradation rate CLint were calculated:
Based on the data obtained, candidates' enzyme stability in human liver microsomes was determined.

KG-1 cells = experiment: Antiproliferative activity, KG-1 cells (AlamarBlue); format: cell-based; conditions: Homo sapiens, KG-1, 120 h, 120 h incubation
Method: as §1, §2

[4] = Stability of the compounds in human blood plasma; format: in vitro ADME; conditions: pooled human blood plasma, 10 μM, 4 hours at 37° C.
Method: To assess the blood plasma stability of the compounds, we used pooled human blood plasma taken from ten healthy donors. The initial candidate solution (10 mM in DMSO) was diluted with pooled blood plasma to a concentration of 10 μm (test solution). The test solution was incubated in a dry block thermostat for 4 hours at 37° C. HPLC with Agilent 1200 liquid chromatography system (Agilent, USA) was employed to determine peak areas of the compounds in test samples, said peak areas corresponding to the initial test time (prior to incubation) and the final test time (after incubation in a dry block thermostat for 4 hours at 37° C.), proteins were preliminarily precipitated with acetonitrile. Chromatographic analysis was performed in a gradient elution regime with a flow rate of 1 mL/min Substance amount in % in a sample after thermostatting was determined.
The stability of the compounds was estimated. The compounds described herein show at least 90% chemical stability, i.e. they are chemically stable in human blood plasma (Table 2).

| microsomal CLint at 10 μM [2] [µL/min/mg] | IC50 (MV4-11 cells) [nM] | IC50 (CDK8/Cyclin C) [nM] | microsomal CLint at 10 μM [3] [µL/min/mg] | Chemical stability in human blood plasma 4 h, % [4] [%] | Structure (SMILES) | CC50 at 72 h [1] [µM] | IC50 (KG-1 cells) [nM] |
| --- | --- | --- | --- | --- | --- | --- | --- |
| 1.4 | 2.8 | 1.85 | 7 | 100.0 | CN1CCN(C(=O)c2cnc3c(N)ncc(-c4ccc(-c5cnn(CC(=O)N(C)C)c5)cc4)c3c2)CC1 [Compound 3.49, 2-(4-(4-(8-amino-3-(4-methylpiperazine-1-carbonyl)-1,7-naphthyridine-5-yl)phenyl) -1H-pyrazole-1-yl)-N,N-dimethylacetamide] | > 100 | 12.9 |
| 7.1 | 1.3 | 1.01 | 7.8 | 100.0 | CN1CCN(C(=O)Cn2cc(-c3ccc(-c4cnc(N)c5ncc(C(=O)N6CCC6)cc45)cc3)cn2)CC1 [Compound 3.53, 2-(4-(4-(8-amino-3-(azetidine-1-carbonyl)-1,7-naphthyridine-5-yl)phenyl)-1H-pyrazole-1-yl)-1-(4-methylpiperazine-1-yl)ethan-1-one] | ~90 | 2.4 |
| 1.5 | 1.1 | 1.1 | 5.6 | 96.5 | CN1CCN(C(=O)Cn2cc(-c3ccc(-c4cnc(N)c5ncc(C(=O)NC6CC6)cc45)cc3)cn2)CC1 [Compound 3.47, 8-amino-N-cyclopropyl-5-(4-(1-(2-(4-methylpiperazin-1-yl)-2-oxoethyl)-1H-pyrazole-4-yl)phenyl)-1,7-naphthyridine-3-carboxamide] | > 100 | 3.3 |
| 0.5 | 0.7 | 1.11 | 2.6 | 96.5 | CN(C)C(=O)Cn1cc(-c2ccc(-c3cnc(N)c4ncc(C(=O)NC5CC5)cc34)cc2)cn1 [Compound 3.46, 8-amino-N-cyclopropyl-5-(4-(1-(2-(dimethylamino)-2-oxoethyl)-1H-pyrazole-4-yl)phenyl)-1,7-naphthyridine-3-carboxamide] | > 100 | 1.1 |

From patent US11840531B2, “CDK8/19 inhibitors” (JOINT STOCK COMPANY “BIOCAD”, priority 2018, dated 2023)
